# Like-named read-outs stand apart in the source and are kept apart here.
# Format: in vivo, SD rats
# Experimental: Toxicity studies were conducted at Biotoxtech (Korea) under review and approval from IACUC (170842, 180144, 170889) of Biotoxtech. All animals used in the toxicity test were purchased from OrientBio (Korea).
# A subchronic toxicity study was performed for PP2S. Female and male rats were divided into a control group (0 mg/kg/day, n = 15), a low-dose group (167 mg/kg/day, n = 10), a medium-dose group (500 mg/kg/day, n = 10), and a high-dose group (1,500 mg/kg/day, n = 15), respectively. Thus, there were a total of 8 groups. The drug was administered by oral gavage at 10 mL/kg body weight daily for 4 weeks. Five animals each in the control and high-dose groups continued their treatments for 2 more weeks. Clinical symptoms were observed, and body weight was measured during the test period for a total of 6 weeks; 0.5% methyl cellulose 1,500 cP (Sigma, USA) in water for injection (JW Pharmaceutical, Korea) was used as a vehicle. Control animals were treated with only the same volume of the vehicle.
# Organ weights were measured while conducting a 4-week repeated oral toxicity study for PP2S. For all animals, wet weight of the following organs were measured, and the relative organ weight ratio to the fasted body weight was calculated. Organs with left and right sides were weighed together. […] In addition, changes observed with statistical significance in females of the recovery group were minor changes, which were not observed in the main test group. They were not accompanied by other related changes. Thus, they were judged to have no toxicological significance.
# [1] = male, 1,500 mg/kg, dosing period
# [2] = male, 1,500 mg/kg, recovery period
# [3] = up to 1,500 mg/kg/day oral, 4 weeks of administration and 2 weeks of recovery
smiles,measurement,setting,value
"CCCCOc1ccc2cc(CN3C(=O)CC[C@H]3C(=O)OC)c3cc(OC)c(OC)cc3c2c1 [PP2S, Methyl (S)-1-((3-butoxy-6,7-dimethoxyphenanthren-9-yl)methyl)-5-oxopyrrolidine-2-carboxylate]","Mean absolute organ weight, Adrenal","male, 167 mg/kg, dosing period",0.0619 g
same,"Mean absolute organ weight, Brain","male, 167 mg/kg, dosing period",1.79 g
same,"Mean absolute organ weight, Heart","male, 167 mg/kg, dosing period",1.33 g
same,"Mean absolute organ weight, Kidney","male, 167 mg/kg, dosing period",2.59 g
same,"Mean absolute organ weight, Liver","male, 167 mg/kg, dosing period",10.38 g
same,"Mean absolute organ weight, Lung","male, 167 mg/kg, dosing period",1.42 g
same,"Mean absolute organ weight, Pituitary","male, 167 mg/kg, dosing period",0.0109 g
same,"Mean absolute organ weight, Prostate","male, 167 mg/kg, dosing period",0.40 g
same,"Mean absolute organ weight, Spleen","male, 167 mg/kg, dosing period",0.69 g
same,"Mean absolute organ weight, Testis","male, 167 mg/kg, dosing period",3.22 g
same,"Mean relative organ weight, Adrenal","male, 167 mg/kg, dosing period",0.0170 g/100g body weight
same,"Mean relative organ weight, Brain","male, 167 mg/kg, dosing period",0.54 g/100g body weight
same,"Mean relative organ weight, Heart","male, 167 mg/kg, dosing period",0.37 g/100g body weight
same,"Mean relative organ weight, Kidney","male, 167 mg/kg, dosing period",0.72 g/100g body weight
same,"Mean relative organ weight, Liver","male, 167 mg/kg, dosing period",2.86 g/100g body weight
same,"Mean relative organ weight, Lung","male, 167 mg/kg, dosing period",0.39 g/100g body weight
same,"Mean relative organ weight, Pituitary","male, 167 mg/kg, dosing period",0.0030 g/100g body weight
same,"Mean relative organ weight, Prostate","male, 167 mg/kg, dosing period",0.11 g/100g body weight
same,"Mean relative organ weight, Spleen","male, 167 mg/kg, dosing period",0.19 g/100g body weight
same,"Mean relative organ weight, Testis","male, 167 mg/kg, dosing period",0.89 g/100g body weight
same,B.W. (mean),"male, 500 mg/kg, dosing period",363.5 g
same,"Mean absolute organ weight, Adrenal","male, 500 mg/kg, dosing period",0.0622 g
same,"Mean absolute organ weight, Brain","male, 500 mg/kg, dosing period",1.74 g
same,"Mean absolute organ weight, Heart","male, 500 mg/kg, dosing period",1.31 g
same,"Mean absolute organ weight, Kidney","male, 500 mg/kg, dosing period",2.67 g
same,"Mean absolute organ weight, Liver","male, 500 mg/kg, dosing period",10.46 g
same,"Mean absolute organ weight, Lung","male, 500 mg/kg, dosing period",1.41 g
same,"Mean absolute organ weight, Pituitary","male, 500 mg/kg, dosing period",0.0119 g
same,"Mean absolute organ weight, Prostate","male, 500 mg/kg, dosing period",0.49 g
same,"Mean absolute organ weight, Spleen","male, 500 mg/kg, dosing period",0.69 g
same,"Mean absolute organ weight, Testis","male, 500 mg/kg, dosing period",3.32 g
same,"Mean relative organ weight, Adrenal","male, 500 mg/kg, dosing period",0.0171 g/100g body weight
same,"Mean relative organ weight, Brain","male, 500 mg/kg, dosing period",0.55 g/100g body weight
same,"Mean relative organ weight, Heart","male, 500 mg/kg, dosing period",0.36 g/100g body weight
same,"Mean relative organ weight, Kidney","male, 500 mg/kg, dosing period",0.74 g/100g body weight
same,"Mean relative organ weight, Liver","male, 500 mg/kg, dosing period",2.87 g/100g body weight
same,"Mean relative organ weight, Lung","male, 500 mg/kg, dosing period",0.39 g/100g body weight
same,"Mean relative organ weight, Pituitary","male, 500 mg/kg, dosing period",0.0033 g/100g body weight
same,"Mean relative organ weight, Prostate","male, 500 mg/kg, dosing period",0.14 g/100g body weight
same,"Mean relative organ weight, Spleen","male, 500 mg/kg, dosing period",0.19 g/100g body weight
same,"Mean relative organ weight, Testis","male, 500 mg/kg, dosing period",0.91 g/100g body weight
same,B.W. (mean),[1],366.0 g
same,"Mean absolute organ weight, Adrenal",[1],0.0630 g
same,"Mean absolute organ weight, Brain",[1],1.81 g
same,"Mean absolute organ weight, Heart",[1],1.33 g
same,"Mean absolute organ weight, Kidney",[1],2.63 g
same,"Mean absolute organ weight, Liver",[1],10.79 g
same,"Mean absolute organ weight, Lung",[1],1.45 g
same,"Mean absolute organ weight, Pituitary",[1],0.0113 g
same,"Mean absolute organ weight, Prostate",[1],0.45 g
same,"Mean absolute organ weight, Spleen",[1],0.74 g
same,"Mean absolute organ weight, Testis",[1],3.35 g
same,"Mean relative organ weight, Adrenal",[1],0.0172 g/100g body weight
same,"Mean relative organ weight, Brain",[1],0.54 g/100g body weight
same,"Mean relative organ weight, Heart",[1],0.37 g/100g body weight
same,"Mean relative organ weight, Kidney",[1],0.72 g/100g body weight
same,"Mean relative organ weight, Liver",[1],2.94 g/100g body weight
same,"Mean relative organ weight, Lung",[1],0.40 g/100g body weight
same,"Mean relative organ weight, Pituitary",[1],0.0031 g/100g body weight
same,"Mean relative organ weight, Prostate",[1],0.12 g/100g body weight
same,"Mean relative organ weight, Spleen",[1],0.20 g/100g body weight
same,"Mean relative organ weight, Testis",[1],0.92 g/100g body weight
same,B.W. (mean),[2],419.4 g
same,"Mean absolute organ weight, Adrenal",[2],0.0595 g
same,"Mean absolute organ weight, Heart",[2],1.36 g
same,"Mean absolute organ weight, Kidney",[2],2.73 g
same,"Mean absolute organ weight, Liver",[2],11.62 g
same,"Mean absolute organ weight, Lung",[2],1.61 g
same,"Mean absolute organ weight, Prostate",[2],0.59 g
same,"Mean absolute organ weight, Spleen",[2],0.72 g
same,"Mean absolute organ weight, Testis",[2],3.48 g
same,"Mean relative organ weight, Adrenal",[2],0.0140 g/100g body weight
same,"Mean relative organ weight, Brain",[2],0.48 g/100g body weight
same,"Mean relative organ weight, Heart",[2],0.33 g/100g body weight
same,"Mean relative organ weight, Kidney",[2],0.65 g/100g body weight
same,"Mean relative organ weight, Liver",[2],2.76 g/100g body weight
same,"Mean relative organ weight, Lung",[2],0.38 g/100g body weight
same,"Mean relative organ weight, Pituitary",[2],0.0028 g/100g body weight
same,"Mean relative organ weight, Prostate",[2],0.14 g/100g body weight
same,"Mean relative organ weight, Spleen",[2],0.17 g/100g body weight
same,"Mean relative organ weight, Testis",[2],0.83 g/100g body weight
same,organ weight/histopathological changes,"up to 1,500 mg/kg/day oral, 4 weeks",no organ weight/histopathological changes were observed
same,change in body weight compared to control group,[3],did not lead to a significant change
same,death or abnormal clinical symptoms,[3],did not cause death or abnormal clinical symptoms
